US20140275511A1, “PURIFICATION OF […]” (priority 2013, published 2014)

Tests used:
[1] = system: Valley Fever (coccidioidomycosis); conditions: mouse, in vivo; cited from earlier work

C[C@@H]([C@H](N)C(=O)N[C@H](C(=O)O)[C@H]1O[C@@H](n2ccc(=O)[nH]c2=O)[C@H](O)[C@@H]1O)[C@H](O)c1ccc(O)cn1 [Nikkomycin Z]
effectiveness at treating infected animals [1]: quite effective at treating infected animals
stability of broth at pH 4: reasonably stable for at least a week
